Experiment: recombinant barcode read abundance after kanamycin selection (control-corrected) (log10(CPM+1)); higher = more efficient recombination; sequences stand for … in AGTGCAGAGAAAATCGGCCAGTTTTCTCTGCCTGCAGTCCGCATGCCGT…AGATTTATGCAGCGGACTGCCTTTCTCCCAAAGTGATAAACCGGACAGTATCATGGACCGGTTTTCCCGGTAATCCGTATTTGCAAGGTTGGTTTCACT; site = the 11-nt target
Procedure, shortened: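 Targets were screened in pooled form in E. coli against IS621 bridge RNA target-binding loops. Recombination efficiency is based on barcode counts at recombinant junctions in counts per million, averaged and corrected for the control. Numbers are shown as log10(CPM+1), with duplicate plates on chloramphenicol/ampicillin LB agar (control) or chloramphenicol/ampicillin/kanamycin with 0.1 mM IPTG.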
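Also: IS621 recombinase and bridge RNA in Escherichia coli cells.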

Sequence	recombinant barcode read abundance (log10)
TCCAGGGCTTGGGTTCTAACCTGTTGCCT (site TCCAGGGCTAG)	0.185
TCCAGGGCTTGGGTTCTAACCTGTTGCCT (site TCCTGGCCTAG)	0.0786
TCCAGTACTTGGGTTCTAACCTGTTGCAT (site TCCAGTACTAT)	0.351
TCCAGTACTTGGGTTCTAACCTGTTGCAT (site TCCCGTACTAT)	0.0322
TCCAGTACTTGGGTTCTAACCTGTTGCAT (site TCCGGTACTAT)	0.564
TCCAGTACTTGGGTTCTAACCTGTTGCAT (site TCCTGTACTAT)	0.105
TCCCATACTTGGGTTCTAACCTGTTGCGA (site CTTGGGTCTAT)	0.0603
TCCCATACTTGGGTTCTAACCTGTTGCGA (site TCCCATACTTC)	1.57
TCCCATCCTTGGGTTCTAACCTGTTGCCT (site TCCCATACTAG)	0.0689
TCCCATCCTTGGGTTCTAACCTGTTGCCT (site TCCCATCCTAG)	0.757
TCCCATCCTTGGGTTCTAACCTGTTGCCT (site TCCCATGCTAG)	0.0237
TCCCATCCTTGGGTTCTAACCTGTTGCCT (site TCCCATTCTAG)	0.592
TCCCATCCTTGGGTTCTAACCTGTTGCGT (site TCCCATCCTAC)	2.38
TCCCATCCTTGGGTTCTAACCTGTTGCGT (site TCCTATCCTAC)	0.0583
TCCCGTACTTGGGTTCTAACCTGTTGCAT (site TCCAGTACTAT)	0.382
TCCCGTACTTGGGTTCTAACCTGTTGCAT (site TCCCGTACTAT)	0.43
TCCCGTACTTGGGTTCTAACCTGTTGCAT (site TCCGGTACTAT)	0.0638
TCCCGTACTTGGGTTCTAACCTGTTGCAT (site TCCTGTACTAT)	0.159
TCCCTATCTTGGGTTCTAACCTGTTGCCT (site TACCTATCTAG)	0.223
TCCCTATCTTGGGTTCTAACCTGTTGCCT (site TCCCTATCTAG)	0.758
TCCCTATCTTGGGTTCTAACCTGTTGCCT (site TGCCTATCTAG)	0.0386
TCCCTATCTTGGGTTCTAACCTGTTGCCT (site TTCCTATCTAG)	0.0651

Sequence	recombinant barcode read abundance (log10)
TCCGACCCTTGGGTTCTAACCTGTTGCAC (site TCCGACCCTGT)	2.54
TCCGACCCTTGGGTTCTAACCTGTTGCAC (site TCCGTCCCTAT)	0.0486
TCCGAGACTTGGGTTCTAACCTGTTGCCG (site TCCGAGACTAG)	0.541
TCCGAGACTTGGGTTCTAACCTGTTGCCG (site TCCGAGACTCG)	1.93
TCCGAGACTTGGGTTCTAACCTGTTGCCG (site TCCGAGACTGG)	0.0458
TCCGAGACTTGGGTTCTAACCTGTTGCCG (site TCCGAGACTTG)	0.0796
TCCGATTCTTGGGTTCTAACCTGTTGCGT (site GCCTATTCTAC)	0.19
TCCGATTCTTGGGTTCTAACCTGTTGCGT (site TCCGATTCTAC)	1.7
TCCGCTACTTGGGTTCTAACCTGTTGCCT (site TCCGCTACTAG)	0.0438
TCCGCTACTTGGGTTCTAACCTGTTGCCT (site TCCGCTCCTAG)	0.0689
TCCGCTACTTGGGTTCTAACCTGTTGCCT (site TCCGCTGCTAG)	0.0537
TCCGCTACTTGGGTTCTAACCTGTTGCCT (site TCCGCTTCTAG)	0.107
TCCGCTTCTTGGGTTCTAACCTGTTGCCT (site TCCGCTACTAG)	0.321
TCCGCTTCTTGGGTTCTAACCTGTTGCCT (site TCCGCTCCTAG)	0.259
TCCGCTTCTTGGGTTCTAACCTGTTGCCT (site TCCGCTGCTAG)	0.0858
TCCGCTTCTTGGGTTCTAACCTGTTGCCT (site TCCGCTTCTAG)	0.487
TCCGCTTCTTGGGTTCTAACCTGTTGCTT (site AATCGAGCTCC)	0.0408
TCCGCTTCTTGGGTTCTAACCTGTTGCTT (site TCCGCTTCTAA)	0.0659
TCCGGTACTTGGGTTCTAACCTGTTGCTT (site TCCAGTACTAA)	0.0783
TCCGGTACTTGGGTTCTAACCTGTTGCTT (site TCCGGTACTAA)	0.438
TCCTAACCTTGGGTTCTAACCTGTTGCCT (site TCCTAACCTAG)	0.454
TCCTAACCTTGGGTTCTAACCTGTTGCCT (site TCCTAATCTAT)	0.0117

Sequence	recombinant barcode read abundance (log10)
TCCTAAGCTTGGGTTCTAACCTGTTGCGG (site TCCTAAGCTCC)	1.67
TCCTAAGCTTGGGTTCTAACCTGTTGCGG (site TGCTAAGCTCA)	0.276
TCCTAAGCTTGGGTTCTAACCTGTTGCTA (site TCCAAAGCTTA)	0.05
TCCTAAGCTTGGGTTCTAACCTGTTGCTA (site TCCCAAGCTTA)	0.227
TCCTAAGCTTGGGTTCTAACCTGTTGCTA (site TCCGAAGCTTA)	0.372
TCCTAAGCTTGGGTTCTAACCTGTTGCTA (site TCCTAAGCTTA)	0.161
TCCTAATCTTGGGTTCTAACCTGTTGCTT (site CGGGCTACTTG)	0.284
TCCTAATCTTGGGTTCTAACCTGTTGCTT (site TCCTAATCTAA)	0.111
TCCTATCCTTGGGTTCTAACCTGTTGCGA (site GTGGGAACTAA)	0.0465
TCCTATCCTTGGGTTCTAACCTGTTGCGA (site TCCTATCCTTC)	0.513
TCCTATGCTTGGGTTCTAACCTGTTGCCG (site GAAAGCTCTAC)	0.0567
TCCTATGCTTGGGTTCTAACCTGTTGCCG (site TCCTATGCTCG)	0.444
TCCTCGTCTTGGGTTCTAACCTGTTGCCT (site GCCTGGTCTAG)	0.00881
TCCTCGTCTTGGGTTCTAACCTGTTGCCT (site TCCTCGTCTAG)	0.669
TCCTGTACTTGGGTTCTAACCTGTTGCCT (site TCCTGTACTAG)	0.239
TCCTGTACTTGGGTTCTAACCTGTTGCCT (site TCCTGTCCTAT)	0.108
TCCTTAGCTTGGGTTCTAACCTGTTGCCG (site TCCTGAGCTCA)	0.155
TCCTTAGCTTGGGTTCTAACCTGTTGCCG (site TCCTTAGCTCG)	0.0503
TCGAACCCTTGGGTTCTAACCTGTTGCGG (site TCAAACCCTCC)	0.991
TCGAACCCTTGGGTTCTAACCTGTTGCGG (site TCCAACCCTCC)	0.168
TCGAACCCTTGGGTTCTAACCTGTTGCGG (site TCGAACCCTCC)	0.851
TCGAACCCTTGGGTTCTAACCTGTTGCGG (site TCTAACCCTCC)	0.0521

Sequence	recombinant barcode read abundance (log10)
TCGAAGCCTTGGGTTCTAACCTGTTGCCT (site TCGAAACCTAG)	0.0823
TCGAAGCCTTGGGTTCTAACCTGTTGCCT (site TCGAACCCTAG)	0.207
TCGAAGCCTTGGGTTCTAACCTGTTGCCT (site TCGAAGCCTAG)	0.324
TCGAAGCCTTGGGTTCTAACCTGTTGCCT (site TCGAATCCTAG)	0.101
TCGAATTCTTGGGTTCTAACCTGTTGCCT (site TCGAATTCTAG)	0.109
TCGAATTCTTGGGTTCTAACCTGTTGCCT (site TCGATGTCTAG)	0.0943
TCGAGAGCTTGGGTTCTAACCTGTTGCCG (site TCGAGAGCTCG)	0.441
TCGAGAGCTTGGGTTCTAACCTGTTGCCG (site TCGAGAGCTTA)	0.203
TCGAGTCCTTGGGTTCTAACCTGTTGCCT (site TCGAGTACTAG)	0.766
TCGAGTCCTTGGGTTCTAACCTGTTGCCT (site TCGAGTCCTAG)	0.101
TCGAGTCCTTGGGTTCTAACCTGTTGCCT (site TCGAGTGCTAG)	0.179
TCGAGTCCTTGGGTTCTAACCTGTTGCCT (site TCGAGTTCTAG)	0.0383
TCGAGTTCTTGGGTTCTAACCTGTTGCCT (site TCGAGTACTAG)	0.0829
TCGAGTTCTTGGGTTCTAACCTGTTGCCT (site TCGAGTCCTAG)	0.0637
TCGAGTTCTTGGGTTCTAACCTGTTGCCT (site TCGAGTGCTAG)	0.0736
TCGAGTTCTTGGGTTCTAACCTGTTGCCT (site TCGAGTTCTAG)	0.174
TCGCACACTTGGGTTCTAACCTGTTGCTA (site TCGCACACTTA)	0.148
TCGCACACTTGGGTTCTAACCTGTTGCTA (site TCGCACTCTTA)	0.0853
TCGCCTGCTTGGGTTCTAACCTGTTGCCT (site TCGCCTACTAG)	0.282
TCGCCTGCTTGGGTTCTAACCTGTTGCCT (site TCGCCTGCTAG)	0.191

From the supplement of paper PMC11208160
